Results: ChEMBL document CHEMBL6182948 (J Med Chem, 2025)

Columns and labels:
[1] = molecular target: T1, CYP2C8 (Homo sapiens, UniProt P10632); assay: Inhibition of CYP2C8 in human liver microsome at 10 uM pre-incubated with compound for 5 mins followed NADPH addition and measured after 5 mins by LC-MS/MS analysis relative to control; assay type: ADME; details: liver microsomes, time 10 min
T1 sequence (P10632 whole entry): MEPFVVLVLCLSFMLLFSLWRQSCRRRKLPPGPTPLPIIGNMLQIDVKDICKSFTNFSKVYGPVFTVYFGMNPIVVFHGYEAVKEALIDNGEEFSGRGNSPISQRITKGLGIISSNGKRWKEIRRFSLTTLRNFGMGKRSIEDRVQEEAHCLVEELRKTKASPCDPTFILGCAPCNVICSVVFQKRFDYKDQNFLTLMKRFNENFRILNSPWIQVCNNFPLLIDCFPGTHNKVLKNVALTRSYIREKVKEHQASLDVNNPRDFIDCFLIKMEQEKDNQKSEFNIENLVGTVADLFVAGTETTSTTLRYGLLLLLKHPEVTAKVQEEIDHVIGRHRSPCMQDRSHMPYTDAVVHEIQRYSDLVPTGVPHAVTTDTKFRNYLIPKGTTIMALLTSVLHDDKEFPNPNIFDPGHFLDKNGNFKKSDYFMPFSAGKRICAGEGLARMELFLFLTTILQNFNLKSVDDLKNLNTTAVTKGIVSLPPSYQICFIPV

[2] = Metabolic stability in liver microsomes (unknown origin) assessed as compound remaining at 0.5 mg/ml measured after 5 mins in presence of NADPH regenerating system by LC-MS/MS analysis relative to control; assay type: ADME, Microsome; details: read-out: Stability
[3] = organism: Homo sapiens; assay: Selectivity index, ratio of IC50 for human recombinant CYP1A1 to IC50 for human recombinant CYP1B1 using 7-ethoxyresorufin as substrate
[4] = molecular target: T2, Cytochrome P450 1A2 (Homo sapiens, UniProt P05177); assay: Inhibition of human recombinant CYP1A2 using 7-ethoxyresorufin as substrate incubated under dark condition for 45 mins in presence of NADPH by EROD fluorescence assay; assay type: ADME
T2 sequence (P05177 whole entry): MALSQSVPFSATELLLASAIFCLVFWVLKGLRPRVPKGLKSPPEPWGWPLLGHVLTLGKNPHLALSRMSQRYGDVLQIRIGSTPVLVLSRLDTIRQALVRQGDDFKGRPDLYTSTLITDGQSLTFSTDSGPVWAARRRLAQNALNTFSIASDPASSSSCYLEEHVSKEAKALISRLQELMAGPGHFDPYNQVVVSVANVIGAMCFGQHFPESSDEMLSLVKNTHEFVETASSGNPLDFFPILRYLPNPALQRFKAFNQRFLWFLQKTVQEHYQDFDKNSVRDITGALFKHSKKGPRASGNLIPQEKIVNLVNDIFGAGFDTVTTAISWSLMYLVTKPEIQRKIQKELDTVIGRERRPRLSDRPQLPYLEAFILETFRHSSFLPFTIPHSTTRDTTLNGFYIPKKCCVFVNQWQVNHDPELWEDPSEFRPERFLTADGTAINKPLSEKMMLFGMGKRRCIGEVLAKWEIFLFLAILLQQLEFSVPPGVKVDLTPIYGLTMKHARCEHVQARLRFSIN

[5] = molecular target: Cytochrome P450 2C9 (Homo sapiens, UniProt P11712); assay: Inhibition of CYP2C9 in human liver microsome pre-incubated with compound for 5 mins followed NADPH addition and measured after 10 mins by LC-MS/MS analysis; assay type: ADME, microsomes
Chain of Cytochrome P450 2C9 (P11712 whole entry): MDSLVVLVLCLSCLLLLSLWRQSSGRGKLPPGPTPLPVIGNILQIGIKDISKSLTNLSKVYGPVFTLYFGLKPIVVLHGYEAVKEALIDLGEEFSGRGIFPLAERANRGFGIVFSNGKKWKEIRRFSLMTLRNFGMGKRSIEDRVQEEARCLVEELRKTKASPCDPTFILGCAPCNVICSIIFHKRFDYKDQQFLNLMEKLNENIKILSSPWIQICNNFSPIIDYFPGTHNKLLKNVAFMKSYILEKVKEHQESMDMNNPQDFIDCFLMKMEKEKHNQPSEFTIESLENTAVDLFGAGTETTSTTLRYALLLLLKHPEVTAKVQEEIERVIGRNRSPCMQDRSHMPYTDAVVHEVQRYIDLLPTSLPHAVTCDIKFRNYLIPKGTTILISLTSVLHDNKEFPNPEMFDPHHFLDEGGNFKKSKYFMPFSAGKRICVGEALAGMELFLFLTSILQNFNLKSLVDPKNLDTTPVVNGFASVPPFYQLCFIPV

[6] = Metabolic stability in liver microsome (unknown origin) assessed as intrinsic clearance at 0.5 mg/mL measured up to 60 mins by LC-MS/MS analysis; assay type: ADME; details: liver microsomes, read-out: CLH
[7] = molecular target: T3, Cytochrome P450 2C8 (Homo sapiens, UniProt P10632); assay: Inhibition of CYP2C8 in human liver microsome pre-incubated with compound for 5 mins followed NADPH addition and measured after 5 mins by LC-MS/MS analysis; assay type: ADME, microsomes
T3 sequence (P10632 whole entry): T1 sequence (P10632 whole entry)

[8] = molecular target: Cytochrome P450 2C19 (Homo sapiens, UniProt P33261); assay: Inhibition of CYP2C19 in human liver microsome pre-incubated with compound for 5 mins followed NADPH addition and measured after 30 mins by LC-MS/MS analysis; assay type: ADME, microsomes
Chain of Cytochrome P450 2C19 (P33261 whole entry): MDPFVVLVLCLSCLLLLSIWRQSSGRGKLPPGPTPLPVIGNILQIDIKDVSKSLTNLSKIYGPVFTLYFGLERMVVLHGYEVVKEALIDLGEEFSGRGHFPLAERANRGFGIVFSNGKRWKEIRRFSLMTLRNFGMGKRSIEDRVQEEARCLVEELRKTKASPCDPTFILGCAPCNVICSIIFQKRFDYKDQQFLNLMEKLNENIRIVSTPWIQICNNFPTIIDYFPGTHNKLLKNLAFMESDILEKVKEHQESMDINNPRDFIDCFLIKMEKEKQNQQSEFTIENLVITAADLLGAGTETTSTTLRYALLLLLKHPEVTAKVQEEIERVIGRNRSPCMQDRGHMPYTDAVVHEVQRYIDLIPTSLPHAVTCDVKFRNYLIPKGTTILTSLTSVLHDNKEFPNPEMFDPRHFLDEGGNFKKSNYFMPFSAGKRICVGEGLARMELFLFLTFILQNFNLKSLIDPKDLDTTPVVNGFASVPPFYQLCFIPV

[9] = molecular target: Cytochrome P450 2D6 (Homo sapiens, UniProt P10635); assay: Inhibition of CYP2D6 in human liver microsome pre-incubated with compound for 5 mins followed NADPH addition and measured after 10 mins by LC-MS/MS analysis; assay type: ADME, microsomes
Chain of Cytochrome P450 2D6 (P10635 whole entry): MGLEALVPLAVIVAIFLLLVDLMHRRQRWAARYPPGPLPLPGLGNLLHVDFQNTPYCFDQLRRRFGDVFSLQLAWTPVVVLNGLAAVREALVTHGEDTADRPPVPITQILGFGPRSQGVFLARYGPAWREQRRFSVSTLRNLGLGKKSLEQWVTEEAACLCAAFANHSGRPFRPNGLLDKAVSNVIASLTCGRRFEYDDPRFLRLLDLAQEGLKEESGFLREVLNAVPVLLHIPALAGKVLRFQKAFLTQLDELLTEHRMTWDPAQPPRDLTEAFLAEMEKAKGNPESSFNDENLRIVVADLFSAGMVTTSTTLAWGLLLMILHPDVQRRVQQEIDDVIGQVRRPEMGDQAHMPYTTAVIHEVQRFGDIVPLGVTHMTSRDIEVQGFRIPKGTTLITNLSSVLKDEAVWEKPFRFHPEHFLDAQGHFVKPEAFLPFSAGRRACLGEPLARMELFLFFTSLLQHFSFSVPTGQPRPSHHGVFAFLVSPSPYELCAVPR

[10] = Oral bioavailability in male Sprague-Dawley rat at 10 mg/kg measured up to 24 hrs by LC-MS/MS analysis; assay type: ADME, organism-based; details: in vivo
[11] = Apparent volume of distribution in male Sprague-Dawley rat at 2 mg/kg, iv measured up to 24 hrs by LC-MS/MS analysis; assay type: ADME, organism-based; details: in vivo, read-out: Vz
[12] = Cmax in male Sprague-Dawley rat at 2 mg/kg, iv measured up to 24 hrs by LC-MS/MS analysis; assay type: ADME, organism-based; details: in vivo
[13] = tested on: A549/TR; assay: Synergistic antiproliferative activity against human A549/Taxol cells assessed as combination index at 20 uM in presence of 0.025 uM paclitaxel by Chou-Talalay method; assay type: functional
[14] = tested on: A549/TR; assay: Inhibition of cell invasion in human A549/Taxol cells assessed as reduction in cell migration incubated for 24 hrs by transwell invasion assay relative to control; assay type: functional, cell-based; details: dose 2.5-10 µM
[15] = Clearance in male Sprague-Dawley rat at 2 mg/kg, iv measured up to 24 hrs by LC-MS/MS analysis; assay type: ADME, organism-based; details: in vivo
[16] = tested on: A549/TR; assay: Synergistic antiproliferative activity against human A549/Taxol cells assessed as combination index at 2.5 uM in presence of 0.1 uM paclitaxel by Chou-Talalay method; assay type: functional
[17] = tested on: A549/TR; assay: Synergistic antiproliferative activity against human A549/Taxol cells assessed as combination index at 10 uM in presence of 0.1uM paclitaxel by Chou-Talalay method; assay type: functional
[18] = tested on: A549/TR; assay: Synergistic antiproliferative activity against human A549/Taxol cells assessed as combination index at 20 uM in presence of 0.5 uM paclitaxel by Chou-Talalay method; assay type: functional
[19] = Tmax in male Sprague-Dawley rat at 2 mg/kg, iv measured up to 24 hrs by LC-MS/MS analysis; assay type: ADME, organism-based; details: in vivo
[20] = AUC (0 to t) in male Sprague-Dawley rat at 2 mg/kg, iv measured up to 24 hrs by LC-MS/MS analysis; assay type: ADME, organism-based; details: in vivo
[21] = AUC (0 to infinity) in male Sprague-Dawley rat at 10 mg/kg, po measured up to 24 hrs by LC-MS/MS analysis; assay type: ADME, organism-based; details: in vivo
[22] = tested on: A549/TR; assay: Synergistic antiproliferative activity against human A549/Taxol cells assessed as combination index at 2.5 uM in presence of 0.5 uM paclitaxel by Chou-Talalay method; assay type: functional
[23] = tested on: A549/TR; assay: Synergistic antiproliferative activity against human A549/Taxol cells assessed as combination index at 5 uM in presence of 0.5 uM paclitaxel by Chou-Talalay method; assay type: functional
[24] = Cmax in male Sprague-Dawley rat at 10 mg/kg, po measured up to 24 hrs by LC-MS/MS analysis; assay type: ADME, organism-based; details: in vivo
[25] = tested on: A549/TR; assay: Synergistic antiproliferative activity against human A549/Taxol cells assessed as combination index at 5 uM in presence of 0.1uM paclitaxel by Chou-Talalay method; assay type: functional

inhibition at 5 min, 10 µM [1] | remaining at 5 min [2] | Ratio IC50 [3] | IC50 [4] | IC50 [5] | CLint scaled [6] | IC50 [7] | IC50 [8] | IC50 [9] | SMILES | also measured
0% | 93.8% | > 56400 | > 100 µM | – | – | – | – | – | N#Cc1ccc(-c2csc(C(=O)Nc3cc(Cl)cc(Cl)c3)n2)cc1 | –
33.6% | 93.1% | 1550 | > 10 µM | > 10 µM | 17.8 mL/min/kg | > 10 µM | 6.45 µM | > 10 µM | N#Cc1ccc(-c2csc(C(=O)Nc3ccc(C(F)(F)F)cc3)n2)cc1 | –
15.7% | 99.5% | > 67500 | > 80 µM | > 10 µM | 1.1 mL/min/kg | > 10 µM | > 10 µM | > 10 µM | O=C(Nc1cc(Cl)cc(Cl)c1)c1nc(-c2cccc(Cl)c2)cs1 | bioavailability [10]: 2.08%; Vd [11]: 4.77 L/kg; Cmax [12]: 4750 ng/mL; CI [13]: 0.63; inhibition [14]: Dose-dependent-effect; clearance [15]: 14.7 mL/min/kg; CI [16]: 0.09; CI [17]: 0.47; CI [18]: 2.15; Tmax [19]: 4.8 min; AUC(0-t) at 24 h [20]: 2290 ng·h/mL; AUC(0-inf) [21]: 239 ng·h/mL; CI [22]: 0.24; CI [23]: 0.48; Cmax [24]: 81 ng/mL; CI [25]: 0.15
